Tests used:
[1] = system: B16HHDII/iDP4 tumour cells; assay: Tumour therapy, B16HHDII/iDP4 tumour in HHDII/DP4 mice; assay type: in vivo, mouse; details: peptide with CpG/MPLA
Method: For tumour challenge experiments, mice were challenged with B16F1 cells s.c. on the right flank 3 days before primary immunisation (unless stated otherwise) and subsequently immunised as above. Tumour implants were carried out at dose of 2.5×10^4 cells/mouse for B16F1, 2.5×10^4 cells/mouse for B16F1 DR4, 4×10^5 cells/mouse for B16F1 HHDII/DP4, 5×10^5 cells/mouse for B16 HHDII/DR1, 1×10^5 cells/mouse for B16F1 HHDII/inducibleDP4, 5×10^4 cells/mouse for B16F1 inducible DR4. For studies involving depletion antibodies, 250 μg anti-mouse Ly6C antibody (clone Monts, BioXcell) was administered i.p. on days 8, 10, 12, 15, 17 and 19. 400 μg anti-mouse Ly6G antibody (clone 1A8, Biolegend) was administered i.p. on day 8 followed by 250 μg on days 11, 15 and 18. Anti-human CD4 antibody (clone OKT4, BioXcell) or anti-mouse CD8 antibody (clone 2.43, BioXcell) were administered at 500 μg dose on day 4 followed by 300 μg dose on days 8 and 11. Tumour growth was monitored twice weekly and mice were humanely euthanised once tumour reached ≥15 mm in diameter.
To provide further evidence for the role of CD4 T cell responses in tumour therapy HHDII/DP4 mice were implanted with B16HHDII/iDP4 tumour cells on day 1 and then immunised with peptides and CpG/MPLA on days 4, 8 and 11. Concurrent with peptide immunisation mice were also treated with CD4 or CD8 depleting antibody and tumour growth monitored. […] To show whether cyanate/isocyanic acid can cross cell membranes B16F1 melanoma cell line was cultured in vitro in the presence or absence of potassium cyanate which is in dynamic equilibrium with isocyanic acid. As a positive control lysates were also produced from in vitro cultured B16F1 cells and then treated with or without KCNO.

HLA-HHDII/DP4 mice = assay: Ex vivo IFNγ ELISpot after peptide immunisation, HHDII/DP4 mice; assay type: in vivo, mouse; details: for IFNγ ELISpot response: 3 immunisations with CpG/MPLA, day 21
Method: C57BL/6 mice (Charles River, UK), HLA-DR4 mice (Model #4149, Taconic, USA), HLA-A2/DR1 (HHDII/DR1, Pasteur Institute), HLA-A2.1+/+HLA-DP4+/+hCD4+/+ (HLA-HHDII/DP4) transgenic mice (EM: 02221, European Mouse Mutant Archive) described in patent WO2013/017545 A1 (EMMA repository, France) were used, aged between 8 and 12 weeks. Peptides were dissolved in PBS to 1 mg/ml and then emulsified (a series of dilutions) with CpG ODN 1826 and MPLA 6 μg/mouse of each (Invivogen, UK). Peptides (25 μg/mouse) were injected subcutaneously at the base of the tail. Mice were immunised at days 1, 7 and 14 for peptide immunisation. Spleens were removed for analysis at day 21 unless stated otherwise.
ELISpot assays were performed using murine IFNγ, IL-17 and IL-10 capture and detection reagents according to the manufacturer's instructions (Mabtech, Sweden). In brief, anti-IFNγ, IL-17 and IL-10 specific antibodies were coated onto wells of 96-well Immobilin-P plate. Synthetic peptides (at various concentrations) and 5×10^5 per well splenocytes were added to wells of the plate in quadruplicate Tumour target cells were added where relevant at 5×10^4/well in triplicate and plates incubated for 40 hrs at 37° C. After incubation, captured IFNγ, IL-10 and IL-17 were detected by biotinylated anti-IFNγ, IL-10 and IL-17 antibodies and developed with a streptavidin alkaline phosphatase and chromogenic substrate. Lipopolysaccharide (LPS; 5 μg/ml) was used as a positive control. For MHC blocking studies, anti-CD4 blocking antibody (GK1.5) or anti-CD4 blocking antibody (RPA-T4) for HHDII/DP4 mice which express human CD4 and anti-CD8 blocking antibody (2.43) from Bioxcell were used at 20 μg/ml. Spots were analysed and counted using an automated plate reader (Cellular Technologies Ltd).
Screening was performed to identify potential homocitrullinated ALDOA epitopes in transgenic HHDII/DP4 and HHDII/DR1 mice. Mice were immunised with pools of human homocitrullinated peptides. […] Each pool was administered as three immunisations containing 20 μg of each peptide and CpG/MPLA as an adjuvant. After 21 days the mice were culled and the immune responses to each peptide within the immunising pool were assessed by ex vivo ELISpot in HHDII/DP4 (FIG. 4b) and HHDII/DR1 mice (FIG. 4d). […] Our predictions therefore identified 3/5 peptides which could induce a T cell response. […] Of the responding peptides ALDOA 74-93 Hcit and 140-157 Hcit peptides are homologous in human and mice therefore these two peptides were selected for further investigation. Minimal IL-10 (FIG. 6b) or IL-17 (FIG. 6c) responses were seen to Aldolase peptides in HHDII/DP4 mice.
Using this combination of predictions, 5 CyK8 peptides containing homocitrulline were synthesised (Table 4). Screening was performed to identify potential homocitrullinated Cyk8 epitopes in transgenic HHDII/DP4. Mice were immunised with pools of human homocitrullinated peptides. […] Each pool was administered as three immunisations containing 20 μg of each peptide and CpG/MPLA as an adjuvant. After 21 days the mice were culled and the immune responses to each peptide within the immunising pool were assessed by ex vivo ELISpot in HHDII/DP4 (FIG. 10a). […] The responses to CyK8 101-120 Hcit, 112-131 Hcit, 182-201 Hcit, 371-388 Hcit and 381-399 Hcit immunisation were characterised for cross reactivity to the wt peptide sequence. […] Thus a key characteristic of immunogenic peptides is they express homocitrulline. All of these peptides (100%) were immunogenic. Thus a high predicted HLA-DP4 binding affinity (<30), the presence of homocitrulline residues in the core region, the peptide being amphipathic in nature with a predominantely spiral conformational structure upon 3D modelling, and the existence of homology between the mouse and human sequences defines immunogenicity. When this model was applied retrospectively to include the vimentin and ALDOA peptides 8/9 (88%) were correctly predicted. […]

HLA-DP4 (human) [2] = assay: DP4 competition ELISA; competitor biotinylated Hep B peptide; 10 ug unlabelled against 10 ug biotinylated Hep B
Chain of HLA-DP4 (human) (P20036 29-260, chain 1 of 2): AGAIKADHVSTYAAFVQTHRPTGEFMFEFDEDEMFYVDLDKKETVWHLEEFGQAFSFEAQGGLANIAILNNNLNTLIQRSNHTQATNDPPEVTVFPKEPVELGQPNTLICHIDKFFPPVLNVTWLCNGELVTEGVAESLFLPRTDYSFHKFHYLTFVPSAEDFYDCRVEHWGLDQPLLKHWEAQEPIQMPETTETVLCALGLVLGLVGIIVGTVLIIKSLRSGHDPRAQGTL
Chain of HLA-DP4 (human) (P04440 30-258, chain 2 of 2, further chain): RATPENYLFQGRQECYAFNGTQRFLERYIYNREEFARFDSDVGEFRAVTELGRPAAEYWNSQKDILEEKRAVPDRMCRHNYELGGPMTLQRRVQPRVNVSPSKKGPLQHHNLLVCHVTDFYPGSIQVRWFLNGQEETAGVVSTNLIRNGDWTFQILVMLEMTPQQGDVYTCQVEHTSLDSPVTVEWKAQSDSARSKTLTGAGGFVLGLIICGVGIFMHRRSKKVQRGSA

HLA-DP4 (human) [3] = molecular target: HLA-DP4 (human)
[4] = splenocytes after 7 days culture

| Substance | tumour growth / survival vs control [1] | IFNγ ELISpot response (HLA-HHDII/DP4 mice) | IFNγ response in presence of CD4 blocking antibody (HLA-HHDII/DP4 mice; [4]) | % inhibition (HLA-DP4 (human) [2]) [%] | cross reactivity of Hcit response to wt peptide (HLA-HHDII/DP4 mice) | IFNγ response in presence of CD8 blocking antibody (HLA-HHDII/DP4 mice; [4]) | OD (HLA-DP4 (human) [3]) |
| --- | --- | --- | --- | --- | --- | --- | --- |
| FSLADAINTEF-Hcit-NTRTNE-Hcit-VELQ [Vimentin 86-108 Hcit] | Significant prevention of tumour growth | stimulation of IFNγ responses | loss of response |  |  |  |  |
| Hep B 181-192 peptide (unlabelled) |  |  |  | 47 |  |  |  |
| A-Hcit-FINYV-Hcit-NCFRMTDQEAIQDL [NPM 266-287 Hcit] | Significant prevention of tumour growth | stimulation of IFNγ responses |  |  | significantly higher | lost |  |
| RNELESYAYSL-Hcit-NQIGD-Hcit- [BiP 562-579 Hcit] | Significant prevention of tumour growth | stimulation of IFNγ responses | loss of response |  | significantly higher |  |  |
| GSHAGN-Hcit-LAMQEFMILPVGAA [Alpha enolase 156-176 Hcit] | Significant prevention of tumour growth | stimulation of IFNγ responses | lost |  |  |  |  |
| Biotinylated Hep B 181-192 peptide |  |  |  |  |  |  | 0.85 OD (450 nm) |

— patent publication US12458688B2, “Epitopes” (Scancell Limited, priority 2018, dated 2025)
